Measurements as given in PMC10048662, “Whole-Cell Biocatalytic Production of Acetoin with an aldC-Overexpressing Lactococcus lactis Using Soybean as Substrate” (Foods, 2023).

Target: T1, ALDC (α-acetolactate decarboxylase, aldC) (Lactiplantibacillus plantarum, UniProt F9UPY7)
T1 construct: gene aldB; expressed in Lactococcus lactis NZ9000 from pNZ8048, crude lysate supernatant; ALDC described as dimer
Experiment: acetoin formation, creatine/α-naphthol colour reaction at […] nm
Format: biochemical
Settings: crude lysate supernatant of nisin-induced cells; 30 °C, 20 min; uninduced cells as comparison

T1 sequence (F9UPY7 entry or part of it): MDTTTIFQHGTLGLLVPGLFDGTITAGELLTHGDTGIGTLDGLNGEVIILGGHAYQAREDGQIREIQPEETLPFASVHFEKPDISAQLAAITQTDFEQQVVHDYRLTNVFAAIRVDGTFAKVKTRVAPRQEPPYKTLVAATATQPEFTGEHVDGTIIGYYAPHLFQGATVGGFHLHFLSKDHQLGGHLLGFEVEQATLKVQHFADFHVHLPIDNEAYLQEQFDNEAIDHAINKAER

CC(=O)C(C)(O)C(=O)O (racemic) [α-acetolactate]
acetoin formation, creatine/α-naphthol colour reaction at 522 nm: the expressed ALDC can efficiently convert α-acetolactate to acetoin
